Data set [1] has as its system L. mexicana axenic amastigotes. Kind of data set: Initial screen, L. mexicana axenic amastigotes, Alamar Blue. The format is cell-based, Leishmania mexicana. The note with it: for initial hit against L. mexicana / inhibition of growth at 2 µM: 2 μM; for initial hit against L. mexicana: growth inhibited by ≥80%; for activity at 2 µM / inhibition of growth at 2 µM: Leishmania mexicana; for inhibition of growth at 2 µM: x = initial hit, read-out: initial hit L.m. As for the experimental part:
(§1) 634 compounds from the PhytoQuest Phytopure temperate plant natural product library were screened for growth inhibitory activity against L. mexicana axenic amastigotes, T. brucei bloodstream form, intraerythrocytic asexual P. falciparum (at 2 μM) and T. evansi bloodstream form parasites (at 1 μM). […] Our initial hits were defined as reducing growth of the parasite by ≥50%. […]
(§2) The PhytoQuest Phytopure library is a commercially available collection of purified compounds isolated predominantly from temperate zone plants, with structures confirmed by NMR and mass spectrometry. The library was provided as 634 non-polar compounds (1 mg/mL in DMSO). Initial screening was performed in a 96-well plate with 200 μL of parasite culture. The initial screen used each compound at a final concentration of 2 μM for L. mexicana axenic amastigotes, T. brucei and P. falciparum, and at 1 μM for T. evansi. L. mexicana axenic amastigotes were plated at 1 × 10^6 cells/mL, incubated for 72 h, and the Alamar Blue assay was used to assess parasite growth. Each compound was tested in triplicate, with two biological replicates (n = 6). T. brucei and T. evansi were plated at 1×10^5 cells/mL for 48 h, and the Alamar Blue assay was used to assess parasite growth. Each compound was tested in triplicate with two biological replicates (n = 6). Intraerythrocytic P. falciparum in the trophozoite stage were seeded at 0.5% parasitaemia and 2% haematocrit for 48 h, and the Malaria SYBR-Green I fluorescence assay was used to assess parasite growth. Each compound was tested in duplicate with two biological replicates (n = 4). Negative controls comprised an equivalent volume of DMSO (equivalent of 1% v/v) to normalise the growth data. Data points >100% growth and <0% growth were tabulated as 100% and 0%, respectively. Some compounds were not tested in all parasite lines as there was insufficient material remaining.
(In general: The colour change of resazurin is a common sign of viable cells or microbes.)

In data set [2] the test system is T. brucei bloodstream form. Kind of data set: Initial screen, T. brucei bloodstream form, Alamar Blue. The format is cell-based, Trypanosoma brucei brucei. As to conditions: for activity at 2 µM: initial screen. The protocol:
(§3) 634 compounds from the PhytoQuest Phytopure temperate plant natural product library were screened for growth inhibitory activity against L. mexicana axenic amastigotes, T. brucei bloodstream form, intraerythrocytic asexual P. falciparum (at 2 μM) and T. evansi bloodstream form parasites (at 1 μM). […] Our initial hits were defined as reducing growth of the parasite by ≥50%.
(§4) L. mexicana strain MNYC/BZ/62/M379 and L. donovani strain LdBOB (a clonal line from strain MHOM/SD/62/1S-CL2) were maintained in vitro in the procyclic promastigote stage. Parasites were cultivated at 26 °C in Schneider’s medium (Gibco) pH 7.0 containing 10% FBS, 100 U/mL penicillin (Lonza) and 100 μg/mL streptomycin (Lonza) as previously described. Differentiation into axenic amastigotes was performed as described previously. Briefly, axenic amastigotes were cultivated at 32 °C in Schneider’s medium pH 5.5 containing 10% FBS, 100 U/mL penicillin (Lonza) and 100 μg/mL streptomycin (Lonza). Bloodstream form T. brucei brucei strain Lister 427 and T. evansi strain Antat 3/3 [59] were maintained in vitro at 37 °C with 5% (v/v) CO2 in HMI-11 medium supplemented with 10% FBS, as described elsewhere. Intraerythrocytic cultures of P. falciparum Dd2^Luc strain [62] were maintained at 37 °C in a 1% O2:3% CO2:96% N2 atmosphere in RPMI-1640 containing 37.5 mM HEPES, 5 mM NaOH, 10 mM D-glucose, 2 mM L-glutamine, 100 μM hypoxanthine, […] gentamicin sulfate, 5% human serum and 5% albumax-II and 2% haematocrit erythrocytes. When required, cultures were synchronised to ring stages using the sorbitol lysis method. Preliminary cytotoxicity screening was assessed using HepG2 cells. These cells were maintained in vitro at 37 °C with 5% (v/v) CO2 in DMEM (Sigma) pH 7 supplemented with 10% FBS, 100 U/mL penicillin (Lonza) and 100 μg/mL streptomycin (Lonza), as previously described. The human monocyte cell line THP-1 [68] was maintained in vitro by culturing at 37 °C with 5% (v/v) CO2 in complete RPMI medium (Dutch modified RPMI-1640 (Gibco) containing 10% FBS and 2 mM L-glutamine (Gibco)). Differentiation of THP-1 cells into macrophages was performed by seeding 2.5 × 10^5 cells/mL in complete RPMI media, supplemented with 20 ng/mL phorbol 12-myristate 13-acetate (PMA), followed by incubation at 37 °C with 5% (v/v) CO2 for 24 h.
as §2, with “The” for “The PhytoQuest Phytopure library is a commercially available collection of purified compounds isolated predominantly from temperate zone plants, with structures confirmed by NMR and mass spectrometry. The”

Data set [3] has as its system T. evansi bloodstream form. Kind of data set: Initial screen, T. evansi bloodstream form, Alamar Blue. The format is cell-based, Trypanosoma evansi. As to conditions: Trypanosoma evansi; for activity at 1 µM: initial screen; for inhibition of growth at 1 µM: x = initial hit, read-out: initial hit T.e. As for the experimental part: as §3, §4
as §2, with “The” for “The PhytoQuest Phytopure library is a commercially available collection of purified compounds isolated predominantly from temperate zone plants, with structures confirmed by NMR and mass spectrometry. The”

In data set [4] the test system is P. falciparum Dd2Luc intraerythrocytic trophozoites. Kind of data set: Initial screen, intraerythrocytic P. falciparum, Malaria SYBR-Green I fluorescence assay. The format is cell-based, Plasmodium falciparum. The note with it: Plasmodium falciparum, 48 h. As for the experimental part: as §1, §2
Data set [5] concerns L. mexicana axenic amastigotes. Kind of data set: Concentration-response EC50, L. mexicana axenic amastigotes (WT). The format is cell-based, Leishmania mexicana. As to conditions: Leishmania mexicana, 72 h, read-out: L. mexicana EC50, axenic amastigotes, 72 h.
A short description of data set [6]: Cytotoxicity CC50, differentiated THP-1, Alamar Blue. As to conditions: human, THP-1 cells differentiated into macrophages with PMA, differentiated THP-1, 48 h; read-out: THP1 CC50. The format is cell-based, human. From the text:
The four lanosterone-like sterols derived from the Noble Fir Abies procera (700022, 700107, 700136) and the Grand Fir Abies grandis (700240) were the only initial compounds taken forward for L. mexicana due to their nanomolar activity and apparent low cytotoxicity (Figure 3a). […] Understanding the impact of the ring-opened lactone head group in this compound compared to the other three warrants further analysis in exploring their structure-activity relationships. These four sterols were also tested for growth inhibitory activity against L. donovani axenic amastigotes. […] As Leishmania spp. amastigotes typically reside with macrophages, further cytotoxicity assays with these sterols were performed against an activated monocyte cell line (THP-1) (Figure 4b). […]

Another data set has as its system T. evansi. Kind of data set: Concentration-response EC50, T. evansi. The format is cell-based. The note with it: Trypanosoma evansi; bloodstream form, 48 h; read-out: T. evansi EC50.
The next data set in a line: in vitro. As to conditions: human, pH 7, HepG2 CC50.
Text: Initial hits from the parasite panel screen were taken forward in log concentration versus normalised response assays to estimate the half maximal effective concentration (EC50) in hit species as well as the half maximal cytotoxic concentrations (CC50) in the human hepatoma cell line HepG2 as a preliminary test for selectivity. Using CC50/EC50 to define the selectivity index (SI), the selectivity for each compound in a defined species compared to a human cell line was estimated and compared to the EC50 (Figure 3).
as §4
EC50 values were determined by serial two-fold dilution of each compound in 96 well plates. Culture conditions and viability assays were as stated for the initial screen, with some exceptions. L. mexicana and L. donovani axenic amastigotes were seeded at 2 × 10^6 cell/s mL, T. brucei and T. evansi were seeded at 2 × 10^5 cells/mL. For cytotoxicity studies, HepG2 cells were seeded at 1 × 10^5 cells/mL, incubated for 48 h and viability was assessed using the Alamar Blue assay. Differentiated THP-1 cells were seeded at 5 × 10^4 cells/mL, incubated for 48 h, and viability was assessed by the Alamar Blue assay. Normalised growth and viability data (compared to untreated controls) were plotted against Log10 concentration to estimate EC50 in GraphPad (Prism v6). Bioluminescence relative rate of kill assays in asexual intraerythrocytic P. falciparum Dd2^Luc were carried out as described.

[7] abbreviates: read-out: mean % growth, L. mexicana, initial screen, compared to a normalised control with same concentration of DMSO solvent.
Where [8] appears, read: Trypanosoma brucei, compared to a normalised control with same concentration of DMSO solvent, read-out: mean % growth, T. b. brucei.
Setting [9] is: compared to a normalised control with same concentration of DMSO solvent, read-out: mean % growth, T. evansi.
Setting [10] is: read-out: mean % growth, P. falciparum, initial screen, compared to a normalised control with same concentration of DMSO solvent.
Where [11] appears, read: read-out: % growth L. mexicana, mean % growth compared to a normalised control with same concentration of DMSO solvent, initial screen.
Where [12] appears, read: Trypanosoma brucei, mean % growth compared to a normalised control with same concentration of DMSO solvent, read-out: % growth T. b. brucei.
Where [13] appears, read: mean % growth compared to a normalised control with same concentration of DMSO solvent, read-out: % growth T. evansi.
Where [14] appears, read: read-out: %growth P. falciparum, mean % growth compared to a normalised control with same concentration of DMSO solvent, initial screen.

Where two headings read alike, the source gives them in different places. Some results are limits rather than exact numbers.

`C=C1C(=O)OC2/C=C(/C)CC/C=C(/C)CC(OC(=O)/C(C)=C\CO)C12` (stereo not shown) [Compound 700756]: the “initial hit against L. mexicana” value in data set [1] is reported as “initial hits”. Besides, the activity at 2 µM was 2.9% in data set [1] (setting [7]), 53.7% in data set [2] (setting [8]) and 44% in data set [4] (setting [10]). Further, the inhibition of growth at 2 µM in data set [1] was over 80%; in data set [4] (read-out: initial hit P.f), over 50%. Also, in data set [3] (setting [9]), the activity at 1 µM was found to be 98.4%. For the same compound, in data set [5], the concentration for a half-maximal effect (EC50) is 1000 nM. Also, the CC50 at 48 h in data set [6] came to 2800 nM.
As for `C/C(=C\C(=O)O)C(O)CC12CCCCC1C(C)(C(=O)OC(O)O)CCC2` (stereo not shown) [Compound 700513], the activity at 2 µM is 56.5% in data set [1] (setting [7]), 104% in data set [2] (setting [8]) and 97% in data set [4] (setting [10]). Besides, in data set [3] (setting [9]), the activity at 1 µM stood at 50%. Besides, the inhibition of growth at 1 µM in data set [3] is over 50%. Moreover, the 50% effective concentration (EC50) in the data set with T. evansi worked out at 756 nM. In the data set “in vitro”, this compound yielded a CC50 at 48 h of over 100000 nM.
In the case of `CC#CC#CC(=O)c1cccc(OC)c1C(=O)OC` [Compound 701044], the “initial hit against L. mexicana” value in data set [1] was “initial hits”. Also, the activity at 2 µM in data set [1] (setting [7]) was -4.5%; in data set [2] (setting [8]), 79.3%; in data set [4] (setting [10]) it was 92.6%. In addition, in data set [1], the inhibition of growth at 2 µM was over 80%. Also, the activity at 1 µM in data set [3] (setting [9]) stood at 90.3%. The EC50 in data set [5] turned out to be 330 nM. In data set [6], the CC50 at 48 h turned out to be 2200 nM.
For the compound `COc1ccc(CC2COC(=O)C2Cc2ccc(OC)c(O)c2O)cc1OC` (stereo not shown) [Compound 700144], the activity at 2 µM in data set [1] (setting [11]) was determined as 83.6%; in data set [2] (setting [12]), 69.4%; in data set [4] (setting [14]) it was 82.6%. Moreover, the activity at 1 µM in data set [3] (setting [13]) is 35.8%. The inhibition of growth at 1 µM in data set [3] was over 50%. For the same compound, the EC50 in the data set with T. evansi was 451 nM. For the same compound, the CC50 at 48 h in “in vitro” is over 100000 nM.
In the case of `C=C(CC)C(=O)OC1CC(=C)C2CC(O)C(=C)C2C2OC(=O)C(=C)C12` (stereo not shown) [Compound 701212], the “initial hit against L. mexicana” value in data set [1] was “initial hits”. For the same compound, the activity at 2 µM came out at 1.5% in data set [1] (setting [7]), 77.1% in data set [2] (setting [8]) and 84.7% in data set [4] (setting [10]). Further, the inhibition of growth at 2 µM in data set [1] was over 80%. In data set [3] (setting [9]), the activity at 1 µM turned out to be 86.5%. In data set [5], the concentration for a half-maximal effect (EC50) came to 330 nM. For the same compound, the CC50 at 48 h in data set [6] is 520 nM.
On to `C/C=C(\C)C(=O)OC1C(C)OC(Oc2c(C(C)C)ccc(C)c2O)C(O)C1OC1OC(C)C(OC(=O)C(C)CC)C(O)C1O` (stereo not shown) [Compound 700004], for which the activity at 2 µM in data set [1] (setting [11]) turned out to be 48.1%; in data set [2] (setting [12]), 14%; in data set [4] (setting [14]), 101%. In addition, in data set [2] (2 μM, growth reduced by ≥50%), the “initial hit against T. brucei” value is given as “initial hits”. Further, the inhibition of growth at 2 µM in data set [2] (Trypanosoma brucei, 2 μM, x = initial hit, read-out: initial hit T.b) is over 50%. In addition, the activity at 1 µM in data set [3] (setting [13]) is 0.7%. The inhibition of growth at 1 µM in data set [3] was over 50%. In addition, the concentration for a half-maximal effect (EC50) in the data set with T. evansi is 357 nM. This compound displayed a CC50 at 48 h in “in vitro” of 16000 nM.
In the case of `CC(=O)OC1C(COC(=O)/C=C/c2ccc(O)cc2)OC(Oc2c(-c3ccc(O)cc3)oc3cc(O)cc(O)c3c2=O)C(OC(=O)/C=C/c2ccc(O)cc2)C1O` (stereo not shown) [Compound 701088], the activity at 2 µM in data set [1] (setting [7]) stood at 81.1%; in data set [2] (setting [8]), 63%; in data set [4] (setting [10]), 99.9%. Further, the activity at 1 µM in data set [3] (setting [9]) is 42.7%. For the same compound, the inhibition of growth at 1 µM in data set [3] was over 50%. In addition, in the data set with T. evansi, the EC50 stood at 816 nM. The same compound returned a CC50 at 48 h in the data set “in vitro” of 54000 nM.

A word on the EC50: it is the concentration at which the effect is half-maximal.

Values taken from article PMC7998250, “Temperate Zone Plant Natural Products—A Novel Resource for Activity against Tropical Parasitic Diseases” (Pharmaceuticals, 2021).
